Species: Ovis aries
Assay: Inhibition of sheep brain tubulin polymerization at 100 uM by DAPI staining-based fluorimetric method relative to control
Details: not given
For `COc1ccc(CN2c3ccccc3Sc3ccccc32)cc1F`, the inhibition was 63%.

Test system: not listed separately
Assay: Cytotoxicity against human CCRF-CEM cells assessed as growth inhibition at 10 uM after 48 hrs by SRB assay relative to control
Format: functional
Details: read-out: GI
For `COc1ccc(CN2c3ccccc3Sc3ccccc32)cc1F`, the inhibition of growth at 10 µM was 78%.

Test system: not listed separately
Assay: Cytotoxicity against human HL-60(TB) cells assessed as growth inhibition at 10 uM after 48 hrs by SRB assay relative to control
Format: functional
Details: HL-60, 48 h, read-out: GI
In the case of `COc1ccc(CN2c3ccccc3Sc3ccccc32)cc1F`, the inhibition of growth at 10 µM is reported as 100%.

Test system: not listed separately
Assay: Cytotoxicity against human MOLT4 cells assessed as growth inhibition at 10 uM after 48 hrs by SRB assay relative to control
Format: functional
Details: MOLT-4, 48 h, read-out: GI
Molecule `COc1ccc(CN2c3ccccc3Sc3ccccc32)cc1F` has an inhibition of growth at 10 µM of 73%.

Test system: not listed separately
Assay: Cytotoxicity against human SR cells assessed as growth inhibition at 10 uM after 48 hrs by SRB assay relative to control
Format: functional
Details: read-out: GI
For `COc1ccc(CN2c3ccccc3Sc3ccccc32)cc1F`, the inhibition of growth at 10 µM was 83%.

Test system: not listed separately
Assay: Cytotoxicity against human A549 cells assessed as growth inhibition at 10 uM after 48 hrs by SRB assay relative to control
Format: functional
Details: A549, 48 h, read-out: GI
In the case of `COc1ccc(CN2c3ccccc3Sc3ccccc32)cc1F`, the inhibition of growth at 10 µM is reported as 78%.

Test system: not listed separately
Assay: Cytotoxicity against human EKVX cells assessed as growth inhibition at 10 uM after 48 hrs by SRB assay relative to control
Format: functional
Details: read-out: GI
For `COc1ccc(CN2c3ccccc3Sc3ccccc32)cc1F`, the inhibition of growth at 10 µM was 66%.

Test system: not listed separately
Assay: Cytotoxicity against human HOP62 cells assessed as growth inhibition at 10 uM after 48 hrs by SRB assay relative to control
Format: functional
Details: HOP-62, 48 h, read-out: GI
`COc1ccc(CN2c3ccccc3Sc3ccccc32)cc1F` showed an inhibition of growth at 10 µM of 80%.

Test system: not listed separately
Assay: Cytotoxicity against human HOP92 cells assessed as growth inhibition at 10 uM after 48 hrs by SRB assay relative to control
Format: functional
Details: HOP-92, 48 h, read-out: GI
In the case of `COc1ccc(CN2c3ccccc3Sc3ccccc32)cc1F`, the inhibition of growth at 10 µM is reported as 50%.

Test system: not listed separately
Assay: Cytotoxicity against human NCI-H226 cells assessed as growth inhibition at 10 uM after 48 hrs by SRB assay relative to control
Format: functional
Details: NCI-H226, 48 h, read-out: GI
Molecule `COc1ccc(CN2c3ccccc3Sc3ccccc32)cc1F` has an inhibition of growth at 10 µM of 44%.

Test system: not listed separately
Assay: Cytotoxicity against human NCI-H23 cells assessed as growth inhibition at 10 uM after 48 hrs by SRB assay relative to control
Format: functional
Details: NCI-H23, 48 h, read-out: GI
`COc1ccc(CN2c3ccccc3Sc3ccccc32)cc1F` showed an inhibition of growth at 10 µM of 69%.

Test system: not listed separately
Assay: Cytotoxicity against human NCI-H322M cells assessed as growth inhibition at 10 uM after 48 hrs by SRB assay relative to control
Format: functional
Details: read-out: GI
In the case of `COc1ccc(CN2c3ccccc3Sc3ccccc32)cc1F`, the inhibition of growth at 10 µM is reported as 57%.

Test system: not listed separately
Assay: Cytotoxicity against human NCI-H460 cells assessed as growth inhibition at 10 uM after 48 hrs by SRB assay relative to control
Format: functional
Details: NCI-H460, 48 h, read-out: GI
`COc1ccc(CN2c3ccccc3Sc3ccccc32)cc1F` showed an inhibition of growth at 10 µM of 95%.

Test system: not listed separately
Assay: Cytotoxicity against human HCT116 cells assessed as growth inhibition at 10 uM after 48 hrs by SRB assay relative to control
Format: functional
Details: HCT-116, 48 h, read-out: GI
Work on `COc1ccc(CN2c3ccccc3Sc3ccccc32)cc1F` yielded an inhibition of growth at 10 µM of 91%.

Test system: not listed separately
Assay: Cytotoxicity against human KM12 cells assessed as growth inhibition at 10 uM after 48 hrs by SRB assay relative to control
Format: functional
Details: KM12, 48 h, read-out: GI
`COc1ccc(CN2c3ccccc3Sc3ccccc32)cc1F` gave an inhibition of growth at 10 µM of 84%.

Test system: not listed separately
Assay: Cytotoxicity against human SF295 cells assessed as growth inhibition at 10 uM after 48 hrs by SRB assay relative to control
Format: functional
Details: SF-295, 48 h, read-out: GI
For `COc1ccc(CN2c3ccccc3Sc3ccccc32)cc1F`, the inhibition of growth at 10 µM was 88%.

Test system: not listed separately
Assay: Cytotoxicity against human SF539 cells assessed as growth inhibition at 10 uM after 48 hrs by SRB assay relative to control
Format: functional
Details: SF-539, 48 h, read-out: GI
`COc1ccc(CN2c3ccccc3Sc3ccccc32)cc1F` gave an inhibition of growth at 10 µM of 100%.

Test system: not listed separately
Assay: Cytotoxicity against human SNB75 cells assessed as growth inhibition at 10 uM after 48 hrs by SRB assay relative to control
Format: functional
Details: SNB-75, 48 h, read-out: GI
Work on `COc1ccc(CN2c3ccccc3Sc3ccccc32)cc1F` yielded an inhibition of growth at 10 µM of 55%.

Test system: not listed separately
Assay: Cytotoxicity against human U251 cells assessed as growth inhibition at 10 uM after 48 hrs by SRB assay relative to control
Format: functional
Details: U-251, 48 h, read-out: GI
`COc1ccc(CN2c3ccccc3Sc3ccccc32)cc1F` showed an inhibition of growth at 10 µM of 79%.

Test system: not listed separately
Assay: Cytotoxicity against human MALME-3M cells assessed as growth inhibition at 10 uM after 48 hrs by SRB assay relative to control
Format: functional
Details: read-out: GI
Work on `COc1ccc(CN2c3ccccc3Sc3ccccc32)cc1F` yielded an inhibition of growth at 10 µM of 67%.

Test system: not listed separately
Assay: Cytotoxicity against human M14 cells assessed as growth inhibition at 10 uM after 48 hrs by SRB assay relative to control
Format: functional
Details: M14, 48 h, read-out: GI
Molecule `COc1ccc(CN2c3ccccc3Sc3ccccc32)cc1F` has an inhibition of growth at 10 µM of 100%.

Test system: not listed separately
Assay: Cytotoxicity against human MDA-MB-435 cells assessed as growth inhibition at 10 uM after 48 hrs by SRB assay relative to control
Format: functional
Details: MDA-MB-435, 48 h, read-out: GI
For `COc1ccc(CN2c3ccccc3Sc3ccccc32)cc1F`, the inhibition of growth at 10 µM was 100%.

Test system: not listed separately
Assay: Cytotoxicity against human OVCAR3 cells assessed as growth inhibition at 10 uM after 48 hrs by SRB assay relative to control
Format: functional
Details: OVCAR-3, 48 h, read-out: GI
With `COc1ccc(CN2c3ccccc3Sc3ccccc32)cc1F` the inhibition of growth at 10 µM was 100%.

Test system: not listed separately
Assay: Cytotoxicity against human NCI-ADR-RES cells assessed as growth inhibition at 10 uM after 48 hrs by SRB assay relative to control
Format: functional
Details: read-out: GI
`COc1ccc(CN2c3ccccc3Sc3ccccc32)cc1F` gave an inhibition of growth at 10 µM of 97%.

Test system: not listed separately
Assay: Cytotoxicity against human SKOV3 cells assessed as growth inhibition at 10 uM after 48 hrs by SRB assay relative to control
Format: functional
Details: SK-OV-3, 48 h, read-out: GI
`COc1ccc(CN2c3ccccc3Sc3ccccc32)cc1F` gave an inhibition of growth at 10 µM of 83%.

Test system: not listed separately
Assay: Cytotoxicity against human 786-0 cells assessed as growth inhibition at 10 uM after 48 hrs by SRB assay relative to control
Format: functional
Details: 786-0, 48 h, read-out: GI
For `COc1ccc(CN2c3ccccc3Sc3ccccc32)cc1F`, the inhibition of growth at 10 µM was 78%.

Test system: not listed separately
Assay: Cytotoxicity against human A498 cells assessed as growth inhibition at 10 uM after 48 hrs by SRB assay relative to control
Format: functional
Details: A498, 48 h, read-out: GI
For `COc1ccc(CN2c3ccccc3Sc3ccccc32)cc1F`, the inhibition of growth at 10 µM was 100%.

Test system: not listed separately
Assay: Cytotoxicity against human Caki1 cells assessed as growth inhibition at 10 uM after 48 hrs by SRB assay relative to control
Format: functional
Details: CAKI-1, 48 h, read-out: GI
For `COc1ccc(CN2c3ccccc3Sc3ccccc32)cc1F`, the inhibition of growth at 10 µM was 46%.

Test system: not listed separately
Assay: Cytotoxicity against human RXF393 cells assessed as growth inhibition at 10 uM after 48 hrs by SRB assay relative to control
Format: functional
Details: RXF 393, 48 h, read-out: GI
For `COc1ccc(CN2c3ccccc3Sc3ccccc32)cc1F`, the inhibition of growth at 10 µM was 83%.

Test system: not listed separately
Assay: Cytotoxicity against human TK10 cells assessed as growth inhibition at 10 uM after 48 hrs by SRB assay relative to control
Format: functional
Details: TK-10, 48 h, read-out: GI
Work on `COc1ccc(CN2c3ccccc3Sc3ccccc32)cc1F` yielded an inhibition of growth at 10 µM of 53%.

Test system: not listed separately
Assay: Cytotoxicity against human UO31 cells assessed as growth inhibition at 10 uM after 48 hrs by SRB assay relative to control
Format: functional
Details: UO-31, 48 h, read-out: GI
`COc1ccc(CN2c3ccccc3Sc3ccccc32)cc1F` gave an inhibition of growth at 10 µM of 54%.

Test system: not listed separately
Assay: Cytotoxicity against human PC3 cells assessed as growth inhibition at 10 uM after 48 hrs by SRB assay relative to control
Format: functional
Details: PC-3, 48 h, read-out: GI
`COc1ccc(CN2c3ccccc3Sc3ccccc32)cc1F` gave an inhibition of growth at 10 µM of 79%.

Test system: not listed separately
Assay: Cytotoxicity against human DU145 cells assessed as growth inhibition at 10 uM after 48 hrs by SRB assay relative to control
Format: functional
Details: DU-145, 48 h, read-out: GI
Molecule `COc1ccc(CN2c3ccccc3Sc3ccccc32)cc1F` has an inhibition of growth at 10 µM of 86%.

Test system: not listed separately
Assay: Cytotoxicity against human MCF7 cells assessed as growth inhibition at 10 uM after 48 hrs by SRB assay relative to control
Format: functional
Details: MCF7, 48 h, read-out: GI
`COc1ccc(CN2c3ccccc3Sc3ccccc32)cc1F` showed an inhibition of growth at 10 µM of 84%.

Test system: not listed separately
Assay: Cytotoxicity against human MDA-MB-231 cells assessed as growth inhibition at 10 uM after 48 hrs by SRB assay relative to control
Format: functional
Details: MDA-MB-231, 48 h, read-out: GI
Work on `COc1ccc(CN2c3ccccc3Sc3ccccc32)cc1F` yielded an inhibition of growth at 10 µM of 76%.

Test system: not listed separately
Assay: Cytotoxicity against human BT549 cells assessed as growth inhibition at 10 uM after 48 hrs by SRB assay relative to control
Format: functional
Details: BT-549, 48 h, read-out: GI
For `COc1ccc(CN2c3ccccc3Sc3ccccc32)cc1F`, the inhibition of growth at 10 µM was 50%.

Test system: not listed separately
Assay: Cytotoxicity against human T47D cells assessed as growth inhibition at 10 uM after 48 hrs by SRB assay relative to control
Format: functional
Details: read-out: GI
With `COc1ccc(CN2c3ccccc3Sc3ccccc32)cc1F` the inhibition of growth at 10 µM was 50%.

Test system: not listed separately
Assay: Cytotoxicity against human MDA-MB-468 cells assessed as growth inhibition at 10 uM after 48 hrs by SRB assay relative to control
Format: functional
Details: MDA-MB-468, 48 h, read-out: GI
`COc1ccc(CN2c3ccccc3Sc3ccccc32)cc1F` gave an inhibition of growth at 10 µM of 100%.

Reference: ChEMBL document CHEMBL3862012, “Methylene versus carbonyl bridge in the structure of new tubulin polymerization inhibitors with tricyclic A-rings” (Bioorg Med Chem, 2016)
